The text below walks through data of patent US12121536B2, “Strontium based compositions and formulations for pain, pruritus, and inflammation” (Galleon Labs LLC, priority 2015, dated 2024).

SMILES strings stand for the structures.

Data set [1] can be described thus: Clinical observation: topical application, itching and erythema (flushing). The data set is classed as in vivo, human. Particulars: for itching and erythema of skin: 1% in water solution, 4×2 inch patch on inside forearm, one subject. The procedure: BHB acts on the same pathway that causes flushing in individuals who take high doses of niacin. A topical formulation containing BHB was evaluated to see if it induced itching and erythema. The BHB formulation was compared to a topical niacin formulation.
A 1% BHB in water solution was made and a 1% niacin in water solution was made. Unknown to the subject, the BHB formula was applied in a 4×2 inch patch on the inside left forearm and the niacin formula was applied in a 4×2 in patch on the inside right forearm. The skin was evaluated over a period of time.

For data set [2] the following is noted: emulsions with more than about 6-7% salt (about 2% elemental strontium).
For data set [3], the system named is TCN. As to the kind of experiment: Burning pain from acidic chemical peel (70% glycolic acid) mixed with strontium. The settings on record: strontium mixed with 70% glycolic acid, pH 0.6. The class given is in vivo. The protocol:
Nociceptors also have a CaSR that inhibits nociceptor activation when the extracellular concentration of calcium is raised above normal, or if a similar concentration of strontium is administered. […] When strontium is mixed with the acid, burning pain and stinging is suppressed by 80% or more so that any remaining sensory irritation is not bothersome.

Data set [4] concerns HSV1. Nature of the data set: Preliminary investigations: symptoms of HSV1. The data set is classed as in vivo. An excerpt: Without wishing to be bound by any one theory, it is believed that strontium's ability to block NF-Kappa B contributes to minimizing the symptoms associated with an active infection. As mentioned above, HSV 1 and 2 require the activation of NF-Kappa B for de novo virus synthesis. By blocking NF-Kappa B, strontium is essentially stopping the infection at an early stage.

Data set [5] in a line: Preliminary investigations: pain of post herpetic neuralgia. The data set is classed as in vivo.
The subject of data set [6] is TCN. The settings on record: strontium substitutes for calcium; cited from earlier work.
Data set [7] concerns the target TNF-alpha (Homo sapiens, UniProt P01375). Nature of the data set: Preliminary investigations in psoriasis: TNF-alpha. From the text: (§1) Preliminary investigations indicate that strontium can break up the inflammatory/keratinocyte cycle of psoriasis, specifically by blocking the IL-17 and TNF-alpha. By targeting and blocking the two main pathways that activated dendritic cells use to trigger a psoriatic episode, strontium has immense potential as a therapeutic for psoriasis.

Data set [8] deals with TLR-4 (Homo sapiens, UniProt O00206). As to the kind of experiment: Preliminary data in atopic dermatitis: TLR-4.
Chain of TLR-4 (O00206 24-839, species assumed): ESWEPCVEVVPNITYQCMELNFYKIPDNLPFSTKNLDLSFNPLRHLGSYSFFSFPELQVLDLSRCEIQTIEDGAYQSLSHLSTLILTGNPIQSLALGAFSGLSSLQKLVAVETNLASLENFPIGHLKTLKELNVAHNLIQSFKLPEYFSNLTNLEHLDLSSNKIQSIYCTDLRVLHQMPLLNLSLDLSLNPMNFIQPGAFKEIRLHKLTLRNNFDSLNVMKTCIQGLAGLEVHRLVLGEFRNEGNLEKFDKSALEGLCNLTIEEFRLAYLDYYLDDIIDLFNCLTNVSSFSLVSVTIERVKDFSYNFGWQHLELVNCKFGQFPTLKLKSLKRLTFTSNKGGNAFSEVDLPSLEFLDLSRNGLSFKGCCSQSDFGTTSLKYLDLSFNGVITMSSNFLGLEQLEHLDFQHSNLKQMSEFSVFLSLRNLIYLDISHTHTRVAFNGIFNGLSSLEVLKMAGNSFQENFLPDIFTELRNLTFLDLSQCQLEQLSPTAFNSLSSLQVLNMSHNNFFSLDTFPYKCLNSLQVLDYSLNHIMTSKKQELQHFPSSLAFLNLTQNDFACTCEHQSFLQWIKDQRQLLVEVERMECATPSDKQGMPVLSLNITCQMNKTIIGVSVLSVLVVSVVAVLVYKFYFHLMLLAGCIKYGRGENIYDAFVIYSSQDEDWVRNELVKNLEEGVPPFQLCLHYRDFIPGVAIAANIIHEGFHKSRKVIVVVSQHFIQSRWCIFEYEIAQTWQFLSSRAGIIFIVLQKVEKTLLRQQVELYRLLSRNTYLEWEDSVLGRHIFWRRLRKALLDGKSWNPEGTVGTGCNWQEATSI
Data set [9] in a line: Topical application to skin for pain, itch, irritation. The data set is classed as in vivo. Particulars: simple solutions of strontium and water, no penetration enhancer. An excerpt:
Without wishing to be bound by any one theory, it is believed that opening ion channels in the presence of strontium, allows greater levels of strontium to enter the nociceptor and shut down or decrease its activity. This is due to (1) strontium having a higher affinity than calcium for flowing into the ion channels and (2) the excessive amount of strontium ions present as compared to the physiological levels of calcium present. Furthermore, cysteine based antioxidants and strontium target different mechanisms to block nociception. The combination results in a synergistic affect
Most skin products are “pH balanced” to help maintain a healthy skin pH. […] While not wishing to be bound by any one theory, it is believed that the application of a low pH formulation on the skin activates acid sensitive ion channels such as ASIC and TRPV1 resulting in the opening of ion channels on the nociceptor. The opening of the ion channels in the presence of strontium allows greater levels of strontium to enter the nociceptor and shut down or decrease it activity. This is due to (1) strontium having a higher affinity than calcium for flowing into the ion channels and (2) the excessive amount of strontium ions present as compared to the physiological levels of calcium present. […]

Data set [10] deals with T1, IL-17 (Homo sapiens, UniProt Q16552).
T1 sequence (Q16552 24-155): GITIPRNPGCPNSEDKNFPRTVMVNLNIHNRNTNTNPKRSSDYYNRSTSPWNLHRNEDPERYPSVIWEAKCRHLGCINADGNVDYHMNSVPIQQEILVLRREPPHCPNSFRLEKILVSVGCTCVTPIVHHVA
Nature of the data set: Preliminary investigations in psoriasis: IL-17.
From the text: as §1

Data set [11] has as its system nociceptor. The settings on record: cited from earlier work.
For data set [12], the system named is MMP. As to the kind of experiment: Preliminary data in atopic dermatitis: MMP.

Chain of TNF-alpha (P01375 77-233 limits assumed, species assumed): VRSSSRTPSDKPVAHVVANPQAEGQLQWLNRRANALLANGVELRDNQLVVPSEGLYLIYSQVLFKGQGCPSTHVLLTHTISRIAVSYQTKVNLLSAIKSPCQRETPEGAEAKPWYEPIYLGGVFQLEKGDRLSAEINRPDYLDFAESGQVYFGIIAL

For the compound `CC(O)CC(=O)O` (stereo not drawn) [BHB, beta-hydroxybutyric acid], the “itching and erythema of skin” value in data set [1] is “did not redden or become itchy”. In data set [1] (compared with niacin), the flush/blush response result is recorded as “does not activate”.
`O=C(O)c1cccnc1` [niacin, nicotinic acid, reference compound]: the “itching and erythema of skin” value in data set [1] was “began to redden and itch”.
`O.O.O.O.O.O.[Cl-].[Cl-].[Sr+2]` [strontium chloride hexahydrate]: the emulsion stability result in data set [2] was “tend to be unstable and separate”.
The same measure, in the same setting: under `O=[N+]([O-])[O-].O=[N+]([O-])[O-].[Sr+2]` [strontium nitrate] stands “tend to be unstable and separate”.
In the case of `[Sr+2]` [strontium], the “suppression of burning pain and stinging” value in [3] was not below 80%. The “pain, itch, and rash/blister formation associated with HSV1” value in data set [4] was “can reduce and or eliminate”. Moreover, in data set [5], the “pain associated with PHN” value is given as “can reduce or block”. Moreover, the “reduction of amplitude of synchronous neurotransmitter release” value in [6] was “more than 90%”. Further, the “blocking of TNF-alpha” value in data set [7] is “blocking”. Further, the “blocking of TLR-4 activity” value in [8] is “can block”. Also, in data set [9], the “reducing pain and irritation” value was “can be effective”. Moreover, the “blocking of IL-17” value in data set [10] is “blocking”. The “ability to induce CICR relative to calcium” value in [11] was “over a hundred-fold less active”. Further, the “concentration reached in the ER, greater than calcium” value in data set [11] (not told) is given as “more than 150%”. For the same compound, in data set [12], the “blocking of MMP activity” value is “can block”.
